{"source": "ChEMBL document CHEMBL1140165", "about": "“Rotationally constrained 2,4-diamino-5,6-disubstituted pyrimidines: a new class of histamine H4 receptor antagonists with improved druglikeness and in vivo efficacy in pain and inflammation models” (J Med Chem, 2008)", "key": {"Liver microsomes [1]": {"tested_on": "Liver microsomes", "test": "Metabolic stability in rat liver microsomes", "assay_type": "ADME, Microsome"}, "[2]": {"test": "Terminal volume of distribution in mouse at 5 mg/kg, iv", "assay_type": "ADME, organism-based", "set-up": "dose 5 mg/kg, route intravenous", "settings": "in vivo, read-out: Vbeta"}, "[3]": {"biological_target": "Mu-type opioid receptor (Homo sapiens) (UniProt P35372)", "sequence (P35372 whole entry)": "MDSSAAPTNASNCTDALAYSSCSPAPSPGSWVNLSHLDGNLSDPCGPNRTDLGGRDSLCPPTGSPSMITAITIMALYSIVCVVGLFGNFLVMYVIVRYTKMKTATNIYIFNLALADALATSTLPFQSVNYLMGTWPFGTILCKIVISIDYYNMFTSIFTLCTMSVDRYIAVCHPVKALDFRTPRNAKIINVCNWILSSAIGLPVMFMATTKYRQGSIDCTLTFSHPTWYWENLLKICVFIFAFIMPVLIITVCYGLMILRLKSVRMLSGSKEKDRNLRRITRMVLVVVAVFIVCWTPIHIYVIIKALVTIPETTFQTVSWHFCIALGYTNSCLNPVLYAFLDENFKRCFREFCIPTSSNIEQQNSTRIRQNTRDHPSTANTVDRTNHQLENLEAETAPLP", "test": "Binding affinity to mu opioid receptor"}, "[4]": {"test": "Ratio of drug level in brain to plasma in rat at 10 mg/kg, iv after 30 mins", "assay_type": "ADME, organism-based", "set-up": "dose 10 mg/kg, route intravenous"}, "[5]": {"test": "Blood clearance in rat at 10 mg/kg, iv", "assay_type": "ADME, organism-based", "set-up": "dose 10 mg/kg, route intravenous", "settings": "whole blood"}, "Histamine H4 receptor [6]": {"biological_target": "T1, Histamine H4 receptor (Mus musculus, UniProt Q91ZY2)", "T1 sequence (Q91ZY2 whole entry)": "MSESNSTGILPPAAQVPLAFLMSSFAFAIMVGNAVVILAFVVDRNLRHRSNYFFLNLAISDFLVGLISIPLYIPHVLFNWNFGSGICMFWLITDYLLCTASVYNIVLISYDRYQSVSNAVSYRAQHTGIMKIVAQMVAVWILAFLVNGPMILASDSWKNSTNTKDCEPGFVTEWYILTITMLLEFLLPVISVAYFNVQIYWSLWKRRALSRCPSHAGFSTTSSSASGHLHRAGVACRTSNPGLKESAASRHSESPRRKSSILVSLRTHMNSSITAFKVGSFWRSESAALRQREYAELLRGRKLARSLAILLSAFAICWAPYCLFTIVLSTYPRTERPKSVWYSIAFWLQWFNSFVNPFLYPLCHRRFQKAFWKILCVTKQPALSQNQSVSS", "test": "Antagonist activity at mouse histamine H4 receptor expressed in HEK293 cells assessed as inhibition of histamine-induced intracellular calcium elevation by FLIPR assay", "assay_type": "functional, cell-based"}, "Mus musculus [7]": {"tested_on": "Mus musculus", "test": "Blood clearance in mouse at 5 mg/kg, iv", "assay_type": "ADME, organism-based", "set-up": "dose 5 mg/kg, route intravenous", "settings": "in vivo"}, "[8]": {"test": "Half life in rat at 10 mg/kg, iv", "assay_type": "ADME, organism-based", "set-up": "dose 10 mg/kg, route intravenous", "settings": "in vivo"}, "Cytochrome P450 2C9": {"biological_target": "Cytochrome P450 2C9 (Homo sapiens, UniProt P11712)", "sequence (P11712 whole entry)": "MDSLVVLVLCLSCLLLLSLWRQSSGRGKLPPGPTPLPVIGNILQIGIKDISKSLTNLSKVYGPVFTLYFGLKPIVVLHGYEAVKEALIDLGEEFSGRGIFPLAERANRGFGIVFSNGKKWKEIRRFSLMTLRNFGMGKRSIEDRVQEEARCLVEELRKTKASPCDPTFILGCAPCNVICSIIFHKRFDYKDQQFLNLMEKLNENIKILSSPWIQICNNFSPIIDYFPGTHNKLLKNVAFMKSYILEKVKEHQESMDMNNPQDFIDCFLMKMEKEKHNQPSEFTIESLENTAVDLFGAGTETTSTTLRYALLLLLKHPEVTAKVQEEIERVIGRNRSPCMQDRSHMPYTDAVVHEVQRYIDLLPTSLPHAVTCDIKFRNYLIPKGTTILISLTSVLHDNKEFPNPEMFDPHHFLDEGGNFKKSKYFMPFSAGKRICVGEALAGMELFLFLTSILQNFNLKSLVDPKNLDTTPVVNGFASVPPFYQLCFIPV", "test": "Inhibition of CYP2C9 upto 10 uM", "assay_type": "ADME"}, "[9]": {"test": "Protein binding in human", "assay_type": "ADME, organism-based", "settings": "in vivo, read-out: PB (converted)"}, "Histamine H4 receptor [10]": {"biological_target": "T2, Histamine H4 receptor (Rattus norvegicus, UniProt Q91ZY1)", "T2 sequence (Q91ZY1 whole entry)": "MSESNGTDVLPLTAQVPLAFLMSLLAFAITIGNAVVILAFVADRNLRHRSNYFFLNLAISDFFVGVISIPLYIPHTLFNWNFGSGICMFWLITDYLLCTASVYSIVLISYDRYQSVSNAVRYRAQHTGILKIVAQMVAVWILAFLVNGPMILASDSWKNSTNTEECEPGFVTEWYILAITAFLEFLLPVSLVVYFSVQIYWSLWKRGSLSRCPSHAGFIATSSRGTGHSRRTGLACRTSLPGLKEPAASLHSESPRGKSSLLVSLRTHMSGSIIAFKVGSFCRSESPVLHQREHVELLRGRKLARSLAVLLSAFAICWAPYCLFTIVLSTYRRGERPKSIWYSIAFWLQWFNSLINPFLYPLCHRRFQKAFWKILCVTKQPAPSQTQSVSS", "test": "Antagonist activity at rat histamine H4 receptor expressed in HEK293 cells assessed as inhibition of histamine-induced intracellular calcium elevation by FLIPR assay", "assay_type": "functional, cell-based"}, "Cytochrome P450 3A4": {"biological_target": "Cytochrome P450 3A4 (Homo sapiens, UniProt P08684)", "sequence (P08684 whole entry)": "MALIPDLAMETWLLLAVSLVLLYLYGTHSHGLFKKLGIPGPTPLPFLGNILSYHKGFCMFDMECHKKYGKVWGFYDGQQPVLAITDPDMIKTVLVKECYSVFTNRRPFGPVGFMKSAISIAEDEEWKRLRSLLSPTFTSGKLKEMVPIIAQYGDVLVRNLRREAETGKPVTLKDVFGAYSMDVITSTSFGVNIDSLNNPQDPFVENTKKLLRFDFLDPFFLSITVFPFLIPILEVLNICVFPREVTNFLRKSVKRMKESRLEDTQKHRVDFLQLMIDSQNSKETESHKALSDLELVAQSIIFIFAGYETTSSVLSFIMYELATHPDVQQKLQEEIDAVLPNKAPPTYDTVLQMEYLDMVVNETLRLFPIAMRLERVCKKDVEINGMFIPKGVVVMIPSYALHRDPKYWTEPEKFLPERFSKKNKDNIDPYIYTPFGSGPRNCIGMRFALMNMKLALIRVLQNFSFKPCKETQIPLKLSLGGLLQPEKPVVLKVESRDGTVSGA", "test": "Inhibition of CYP3A4 upto 10 uM", "assay_type": "ADME"}, "[11]": {"test": "Fractional bioavailability in rat at 10 mg/kg, iv and 10 mg/kg, po", "assay_type": "ADME, organism-based", "settings": "in vivo"}, "Liver microsomes [12]": {"tested_on": "Liver microsomes", "test": "Metabolic stability in human liver microsomes", "assay_type": "ADME, Microsome"}, "[13]": {"biological_target": "Delta-type opioid receptor (Homo sapiens) (UniProt P41143)", "sequence (P41143 whole entry)": "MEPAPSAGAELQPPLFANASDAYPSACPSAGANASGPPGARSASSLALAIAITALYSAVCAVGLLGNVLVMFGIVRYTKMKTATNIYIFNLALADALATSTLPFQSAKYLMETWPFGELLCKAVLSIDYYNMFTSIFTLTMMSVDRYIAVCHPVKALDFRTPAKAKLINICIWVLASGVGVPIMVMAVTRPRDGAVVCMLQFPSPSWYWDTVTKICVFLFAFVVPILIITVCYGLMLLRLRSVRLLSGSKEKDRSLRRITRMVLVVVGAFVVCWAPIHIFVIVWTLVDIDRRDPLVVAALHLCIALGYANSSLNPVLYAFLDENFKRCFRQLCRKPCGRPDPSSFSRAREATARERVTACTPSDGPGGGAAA", "test": "Binding affinity to delta opioid receptor"}, "Histamine H4 receptor [14]": {"biological_target": "Histamine H4 receptor (Homo sapiens, UniProt Q9H3N8)", "sequence (Q9H3N8 whole entry)": "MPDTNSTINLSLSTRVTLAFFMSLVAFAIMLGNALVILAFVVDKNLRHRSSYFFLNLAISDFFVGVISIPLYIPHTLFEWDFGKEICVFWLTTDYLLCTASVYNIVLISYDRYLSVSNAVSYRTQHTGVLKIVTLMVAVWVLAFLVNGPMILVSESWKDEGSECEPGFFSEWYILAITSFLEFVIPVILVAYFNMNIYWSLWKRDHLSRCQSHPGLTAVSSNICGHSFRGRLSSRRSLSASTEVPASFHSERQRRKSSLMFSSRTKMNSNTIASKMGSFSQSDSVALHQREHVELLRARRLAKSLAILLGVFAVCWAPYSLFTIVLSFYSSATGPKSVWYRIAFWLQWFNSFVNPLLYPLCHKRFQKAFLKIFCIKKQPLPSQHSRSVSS", "settings": "HEK293"}, "[15]": {"test": "Protein binding in rat", "assay_type": "ADME, organism-based", "settings": "in vivo, read-out: PB (converted)"}, "[16]": {"test": "Terminal volume of distribution in rat at 10 mg/kg, iv", "assay_type": "ADME, organism-based", "set-up": "dose 10 mg/kg, route intravenous", "settings": "in vivo, read-out: Vbeta"}, "Rattus norvegicus [17]": {"tested_on": "Rattus norvegicus", "test": "Antinociceptive efficacy in ip dosed rat assessed as inhibition of carrageenan-induced inflammatory pain in paw after 30 mins by hotbox assay", "assay_type": "functional", "settings": "0.5 h"}, "BMMC": {"tested_on": "BMMC", "test": "Blockade of histamine-induced morphological changes in BALB/c mouse BMMC by flow cytometry", "assay_type": "functional, cell-based"}, "[18]": {"biological_target": "Prostaglandin G/H synthase 1 (Homo sapiens) (UniProt P23219)", "sequence (P23219 whole entry)": "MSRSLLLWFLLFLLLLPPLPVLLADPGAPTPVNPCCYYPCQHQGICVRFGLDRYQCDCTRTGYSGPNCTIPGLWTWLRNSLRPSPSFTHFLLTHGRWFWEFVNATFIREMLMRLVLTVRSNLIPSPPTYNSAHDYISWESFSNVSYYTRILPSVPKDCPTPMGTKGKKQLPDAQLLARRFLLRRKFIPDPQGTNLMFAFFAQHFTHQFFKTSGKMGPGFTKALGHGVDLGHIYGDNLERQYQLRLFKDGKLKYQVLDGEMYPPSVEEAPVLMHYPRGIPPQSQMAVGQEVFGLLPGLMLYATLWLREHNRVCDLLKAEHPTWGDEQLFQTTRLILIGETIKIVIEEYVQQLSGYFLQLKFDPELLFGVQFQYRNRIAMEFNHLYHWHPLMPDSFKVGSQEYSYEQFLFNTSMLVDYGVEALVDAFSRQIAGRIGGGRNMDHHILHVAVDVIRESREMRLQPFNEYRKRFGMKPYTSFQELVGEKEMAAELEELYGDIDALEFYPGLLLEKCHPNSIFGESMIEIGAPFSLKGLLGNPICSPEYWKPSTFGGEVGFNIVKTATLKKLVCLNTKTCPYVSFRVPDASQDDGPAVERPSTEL", "test": "Binding affinity at COX1"}, "[19]": {"test": "Metabolic stability in mouse liver microsomes", "assay_type": "ADME, Microsome"}, "[20]": {"biological_target": "Kappa-type opioid receptor (Homo sapiens) (UniProt P41145)", "sequence (P41145 whole entry)": "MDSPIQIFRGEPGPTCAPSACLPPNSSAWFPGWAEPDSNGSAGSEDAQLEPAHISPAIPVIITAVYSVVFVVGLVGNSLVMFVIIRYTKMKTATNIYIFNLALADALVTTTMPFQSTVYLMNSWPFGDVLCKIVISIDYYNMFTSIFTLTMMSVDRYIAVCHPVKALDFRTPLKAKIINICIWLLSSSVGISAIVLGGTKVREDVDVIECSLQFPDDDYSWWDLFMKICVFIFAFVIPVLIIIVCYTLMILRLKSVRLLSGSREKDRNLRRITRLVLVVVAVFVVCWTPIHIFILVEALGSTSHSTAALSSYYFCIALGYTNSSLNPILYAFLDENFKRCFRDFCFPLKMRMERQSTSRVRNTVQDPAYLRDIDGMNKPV", "test": "Binding affinity to kappa opioid receptor"}, "[21]": {"biological_target": "Cannabinoid receptor 2 (Homo sapiens) (UniProt P34972)", "sequence (P34972 whole entry)": "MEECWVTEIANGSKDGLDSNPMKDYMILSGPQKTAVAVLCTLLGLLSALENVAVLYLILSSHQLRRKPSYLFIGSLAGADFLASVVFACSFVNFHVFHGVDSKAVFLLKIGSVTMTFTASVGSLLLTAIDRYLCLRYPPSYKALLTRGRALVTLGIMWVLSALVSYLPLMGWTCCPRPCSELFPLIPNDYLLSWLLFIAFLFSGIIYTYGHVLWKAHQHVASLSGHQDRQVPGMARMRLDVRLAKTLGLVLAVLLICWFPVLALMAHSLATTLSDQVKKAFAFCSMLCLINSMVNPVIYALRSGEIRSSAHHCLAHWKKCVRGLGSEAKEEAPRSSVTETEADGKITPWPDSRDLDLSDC", "test": "Binding affinity to CB2 receptor"}, "[22]": {"biological_target": "Cannabinoid receptor 1 (Homo sapiens) (UniProt P21554)", "sequence (P21554 whole entry)": "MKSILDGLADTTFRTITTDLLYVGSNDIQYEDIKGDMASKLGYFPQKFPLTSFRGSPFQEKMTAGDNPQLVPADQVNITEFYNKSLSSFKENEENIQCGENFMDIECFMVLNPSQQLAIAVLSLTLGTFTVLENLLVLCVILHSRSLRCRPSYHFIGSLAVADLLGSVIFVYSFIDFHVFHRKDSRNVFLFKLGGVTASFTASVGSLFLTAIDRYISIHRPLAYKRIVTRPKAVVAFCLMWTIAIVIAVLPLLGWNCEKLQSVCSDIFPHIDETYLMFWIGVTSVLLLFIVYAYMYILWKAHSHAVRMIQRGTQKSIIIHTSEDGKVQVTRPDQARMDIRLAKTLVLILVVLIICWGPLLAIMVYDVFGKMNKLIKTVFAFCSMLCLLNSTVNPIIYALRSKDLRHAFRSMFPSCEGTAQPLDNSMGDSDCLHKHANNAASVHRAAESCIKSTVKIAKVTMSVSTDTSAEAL", "test": "Binding affinity to CB1 receptor"}, "Histamine H4 receptor [23]": {"biological_target": "T2, Histamine H4 receptor", "test": "Displacement of [3H]histamine from rat histamine H4 receptor expressed in HEK293 cells", "assay_type": "cell-based"}, "Rattus norvegicus [24]": {"tested_on": "Rattus norvegicus", "test": "Antinociceptive efficacy in spinal nerve ligated Sprague-Dawley rat assessed as reduction of neuropathic pain in left side paw at 100 umol/kg, ip administered 30 mins before testing relative to control", "assay_type": "functional"}, "[25]": {"biological_target": "T3, Prostaglandin G/H synthase 2 (Homo sapiens) (UniProt P35354)", "T3 sequence (whole entry)": "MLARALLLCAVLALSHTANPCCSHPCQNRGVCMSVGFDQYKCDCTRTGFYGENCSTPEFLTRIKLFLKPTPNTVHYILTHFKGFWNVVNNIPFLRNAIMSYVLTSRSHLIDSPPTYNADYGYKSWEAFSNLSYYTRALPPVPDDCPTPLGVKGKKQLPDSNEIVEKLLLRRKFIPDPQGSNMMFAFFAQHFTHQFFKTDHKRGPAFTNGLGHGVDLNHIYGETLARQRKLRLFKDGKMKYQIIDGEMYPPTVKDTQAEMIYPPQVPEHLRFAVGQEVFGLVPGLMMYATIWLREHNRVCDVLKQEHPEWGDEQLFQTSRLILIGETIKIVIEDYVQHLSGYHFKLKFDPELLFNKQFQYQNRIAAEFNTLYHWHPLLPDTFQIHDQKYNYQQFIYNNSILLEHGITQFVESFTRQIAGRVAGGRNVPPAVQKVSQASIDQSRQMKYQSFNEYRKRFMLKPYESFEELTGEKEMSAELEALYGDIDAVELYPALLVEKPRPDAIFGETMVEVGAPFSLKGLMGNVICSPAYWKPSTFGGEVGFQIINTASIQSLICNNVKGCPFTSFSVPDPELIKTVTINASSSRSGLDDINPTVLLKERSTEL", "test": "Binding affinity at COX2"}, "Rattus norvegicus [26]": {"tested_on": "Rattus norvegicus", "test": "Antinociceptive efficacy in rat assessed as inhibition of carrageenan-induced inflammatory pain in paw at 100 umol/kg, ip after 30 mins by hotbox assay relative to control", "assay_type": "functional"}, "Mus musculus [27]": {"tested_on": "Mus musculus", "test": "Inhibition of clobenpropit-induced itching in ip dosed CD1/ICR mouse assessed as blockade of scratching in hind paw for 25 mins pretreated 30 mins before clobenpropit challenge", "assay_type": "functional"}, "[28]": {"test": "Half life in mouse at 5 mg/kg, iv", "assay_type": "ADME, organism-based", "set-up": "dose 5 mg/kg, route intravenous", "settings": "in vivo"}, "Mus musculus [29]": {"tested_on": "Mus musculus", "test": "Antiinflammatory activity against ip dosed BALB/c mouse assessed as inhibition of zymosan-induced peritonitis after 2 hrs pretreated 30 mins before zymosan challenge", "assay_type": "functional"}, "[30]": {"test": "Fractional bioavailability in rat at 5 mg/kg, iv and 5 mg/kg, po", "assay_type": "ADME, organism-based", "settings": "in vivo"}, "Cytochrome P450 2D6": {"biological_target": "Cytochrome P450 2D6 (Homo sapiens, UniProt P10635)", "sequence (P10635 whole entry)": "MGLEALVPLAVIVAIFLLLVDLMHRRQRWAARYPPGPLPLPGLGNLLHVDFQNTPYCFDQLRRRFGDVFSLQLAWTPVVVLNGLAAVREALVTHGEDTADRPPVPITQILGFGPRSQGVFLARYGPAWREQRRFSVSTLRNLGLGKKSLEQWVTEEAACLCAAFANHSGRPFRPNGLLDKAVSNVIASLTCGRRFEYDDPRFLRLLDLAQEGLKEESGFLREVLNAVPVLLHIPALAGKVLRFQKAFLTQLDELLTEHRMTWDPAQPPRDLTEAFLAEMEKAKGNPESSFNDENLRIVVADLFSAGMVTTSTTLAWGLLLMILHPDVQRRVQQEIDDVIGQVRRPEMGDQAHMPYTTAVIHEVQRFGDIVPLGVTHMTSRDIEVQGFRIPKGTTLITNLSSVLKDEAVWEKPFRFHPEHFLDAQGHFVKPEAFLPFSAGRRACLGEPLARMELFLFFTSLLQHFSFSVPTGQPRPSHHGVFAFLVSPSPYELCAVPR", "test": "Inhibition of CYP2D6 upto 10 uM", "assay_type": "ADME"}}, "note": "Active and inactive are the calls of the source. No cut-off for these calls is given here."}
{"smiles": "Nc1nc2c(c(N3CC[C@@H](N)C3)n1)CCCc1ccccc1-2", "values": [{"measurement": "Stability", "setting": "Liver microsomes [1]", "result": 19, "unit": "pmol/min/mg"}, {"measurement": "Vd", "setting": "[2]", "result": 131, "unit": "L/kg"}, {"measurement": "Activity", "setting": "[3]", "result": "inactive"}, {"measurement": "Kp at 0.5 h", "setting": "[4]", "result": 2.2}, {"measurement": "clearance", "setting": "[5]", "result": 323, "unit": "mL/min/kg"}, {"measurement": "EC50", "setting": "Histamine H4 receptor [6]", "result": 5.75, "unit": "nM"}, {"measurement": "CL", "setting": "Mus musculus [7]", "result": 1190, "unit": "mL/min/kg"}, {"measurement": "half-life", "setting": "[8]", "result": 2.6, "unit": "h"}, {"measurement": "Activity", "setting": "Cytochrome P450 2C9", "result": "Not Active"}, {"measurement": "fraction unbound", "setting": "[9]", "result": 0.52}, {"measurement": "EC50", "setting": "Histamine H4 receptor [10]", "result": 10, "unit": "nM"}, {"measurement": "Activity", "setting": "Cytochrome P450 3A4", "result": "Not Active"}, {"measurement": "bioavailability", "setting": "[11]", "result": 34, "unit": "%"}, {"measurement": "Stability", "setting": "Liver microsomes [12]", "result": 13, "unit": "pmol/min/mg"}, {"measurement": "Activity", "setting": "[13]", "result": "inactive"}, {"measurement": "pKb", "setting": "Histamine H4 receptor [14]", "result": 8.24}, {"measurement": "fraction unbound", "setting": "[15]", "result": 0.45}, {"measurement": "Vd", "setting": "[16]", "result": 72.9, "unit": "L/kg"}, {"measurement": "ED50", "setting": "Rattus norvegicus [17]", "result": 72, "unit": "µmol/kg"}, {"measurement": "Activity", "setting": "BMMC", "result": "Active"}, {"measurement": "Activity", "setting": "[18]", "result": "inactive"}, {"measurement": "Stability", "setting": "[19]", "result": 32.9, "unit": "pmol/min/mg"}, {"measurement": "Activity", "setting": "[20]", "result": "inactive"}, {"measurement": "Activity", "setting": "[21]", "result": "inactive"}, {"measurement": "Activity", "setting": "[22]", "result": "inactive"}, {"measurement": "Ki", "setting": "Histamine H4 receptor [23]", "result": 3.8, "unit": "nM"}, {"measurement": "Efficacy", "setting": "Rattus norvegicus [24]", "result": 47, "unit": "%"}, {"measurement": "Activity", "setting": "[25]", "result": "inactive"}, {"measurement": "Efficacy", "setting": "Rattus norvegicus [26]", "result": 68, "unit": "%"}, {"measurement": "ED50", "setting": "Mus musculus [27]", "result": 33, "unit": "µmol/kg"}, {"measurement": "half-life", "setting": "[28]", "result": 1.6, "unit": "h"}, {"measurement": "ED50", "setting": "Mus musculus [29]", "result": 34, "unit": "µmol/kg"}, {"measurement": "bioavailability", "setting": "[30]", "result": 90, "unit": "%"}, {"measurement": "Activity", "setting": "Cytochrome P450 2D6", "result": "Not Active"}]}
